Laboratory results published in ChEMBL document CHEMBL3352031, “Discovery of diamine-linked 17-aroylamido-17-demethoxygeldanamycins as potent Hsp90 inhibitors” (Eur J Med Chem, 2014).

What was measured:
MDA-MB-231 [1] = assay: cells; settings: Homo sapiens, MDA-MB-231, 72 h
Description: Cytotoxicity against human MDA-MB-231 cells after 72 hrs by MTT assay

cells [2] = settings: Homo sapiens, L02, 72 h
Description: Cytotoxicity against human HL7702 cells after 72 hrs by MTT assay

HepG2 = assay: cells; settings: Homo sapiens, HepG2, 72 h
Description: Cytotoxicity against human HepG2 cells after 72 hrs by MTT assay

MDA-MB-231 [3] = assay: Antitumor activity against human MDA-MB-231 cells xenografted in athymic nude mouse assessed as tumor growth inhibition at 10 mg/kg, iv dosed every 3 day for 15 consecutive days; format: functional; settings: MDA-MB-231, 72 h, read-out: TGI
A549 = assay: cells; settings: Homo sapiens, A549, 72 h
Description: Cytotoxicity against human A549 cells after 72 hrs by MTT assay

A-431 = assay: cells; settings: Homo sapiens, A-431, 72 h
Description: Cytotoxicity against human A431 cells after 72 hrs by MTT assay

HeLa = assay: cells; settings: Homo sapiens, 72 h
Description: Cytotoxicity against human HeLa cells after 72 hrs by MTT assay

Mus musculus [4] = assay: Hepatotoxicity in Kunming mouse assessed as serum aspartate aminotransferase level at 10 mg/kg, iv (reference value: 197.2 +/- 11.2 U/L); format: toxicity, organism-based; parameters: dose 10 mg/kg, route intravenous; settings: in vivo
SW480 = assay: cells; settings: Homo sapiens, SW480, 72 h
Description: Cytotoxicity against human SW480 cells after 72 hrs by MTT assay

Mus musculus [5] = assay: Hepatotoxicity in Kunming mouse assessed as serum alanine aminotransferase level at 10 mg/kg, iv (reference value: 60.7 +/- 6.9U/L); format: toxicity, organism-based; parameters: dose 10 mg/kg, route intravenous; settings: in vivo
HUVEC = assay: cells; settings: Homo sapiens, 72 h
Description: Cytotoxicity against HUVEC cells after 72 hrs by MTT assay

MDA-MB-231 [6] = assay: Antitumor activity against human MDA-MB-231 cells xenografted in athymic nude mouse assessed as reduction in tumor weight at 10 mg/kg, iv dosed every 3 day for 15 consecutive days; format: functional
cells [7] = settings: Homo sapiens, BGC-823, 72 h
Description: Cytotoxicity against human BGC823 cells after 72 hrs by MTT assay

[8] = target: Heat shock protein HSP 90-alpha (Homo sapiens, UniProt P07900); assay: Inhibition of GA-FITC binding to human recombinant Hsp90alpha incubated for 5 hrs by fluorescence polarization assay

| SMILES | IC50 (MDA-MB-231 [1]) | Activity (Mus musculus [4]) | Activity (Mus musculus [5]) | IC50 [8] | also measured |
| --- | --- | --- | --- | --- | --- |
| C=CCNC1=C2C[C@@H](C)C[C@H](OC)[C@H](O)[C@@H](C)/C=C(\C)[C@H](OC(N)=O)[C@@H](OC)/C=C\C=C(/C)C(=O)NC(=CC1=O)C2=O [TANESPIMYCIN] | 280 nM | 237.4 U/L | 66.6 U/L | – | IC50 (cells [2]): 99 nM; IC50 (HepG2): 91 nM; inhibition in vivo at 10 mg/kg (MDA-MB-231 [3]): 73%; IC50 (A549): 81 nM; IC50 (A-431): 89 nM; IC50 (HeLa): 128 nM; IC50 (SW480): 572 nM; IC50 (HUVEC): 282 nM; T/C (MDA-MB-231 [6]): 28%; IC50 (cells [7]): 847 nM |
| COc1cc(/C=C/C(=O)NCCCCCCNC2=C3C[C@@H](C)C[C@H](OC)[C@H](O)[C@@H](C)/C=C(\C)[C@H](OC(N)=O)[C@@H](OC)/C=C\C=C(/C)C(=O)NC(=CC2=O)C3=O)ccc1O | 270 nM | 199.3 U/L | 72.7 U/L | 470 nM | – |
| COc1cc(/C=C/C(=O)N2CCC(CNC3=C4C[C@@H](C)C[C@H](OC)[C@H](O)[C@@H](C)/C=C(\C)[C@H](OC(N)=O)[C@@H](OC)/C=C\C=C(/C)C(=O)NC(=CC3=O)C4=O)CC2)ccc1O | 940 nM | 260.8 U/L | 148.6 U/L | 1840 nM | – |
| COC1=C2C[C@@H](C)C[C@H](OC)[C@H](O)[C@@H](C)/C=C(\C)[C@H](OC(N)=O)[C@@H](OC)/C=C\C=C(/C)C(=O)NC(=CC1=O)C2=O [GELDANAMYCIN] | – | 317.2 U/L | 273 U/L | – | – |
| COc1ccc(/C=C/C(=O)NCCCCCCNC2=C3C[C@@H](C)C[C@H](OC)[C@H](O)[C@@H](C)/C=C(\C)[C@H](OC(N)=O)[C@@H](OC)/C=C\C=C(/C)C(=O)NC(=CC2=O)C3=O)cc1OC | 300 nM | 193.4 U/L | 52.8 U/L | 410 nM | – |
| COc1cc(/C=C/C(=O)NCCCCNC2=C3C[C@@H](C)C[C@H](OC)[C@H](O)[C@@H](C)/C=C(\C)[C@H](OC(N)=O)[C@@H](OC)/C=C\C=C(/C)C(=O)NC(=CC2=O)C3=O)ccc1O | 550 nM | 224.8 U/L | 75.3 U/L | 970 nM | – |
| COc1ccc(OC)c(/C=C/C(=O)NCCCCCCNC2=C3C[C@@H](C)C[C@H](OC)[C@H](O)[C@@H](C)/C=C(\C)[C@H](OC(N)=O)[C@@H](OC)/C=C\C=C(/C)C(=O)NC(=CC2=O)C3=O)c1 | 8150 nM | – | – | – | – |
| CO[C@H]1/C=C\C=C(/C)C(=O)NC2=CC(=O)C(NCCCCCCNC(=O)c3ccc(I)cc3)=C(C[C@@H](C)C[C@H](OC)[C@H](O)[C@@H](C)/C=C(\C)[C@@H]1OC(N)=O)C2=O | 3960 nM | – | – | – | – |
